Data on 6 compounds can be found in publication PMC9293227 (Clinical Pharmacology in Drug Development, 2021).

Molecules are shown by their SMILES. Read-outs that look alike come from different tables or passages of the source. Some results are limits rather than exact numbers.

For data set [1] the following is noted: for increase in Cmax with filgotinib coadministration relative to statin alone: pravastatin 40 mg / rosuvastatin 10 mg, filgotinib 200 mg once daily; for AUCinf (molar ratio of 2‐hydroxy‐atorvastatin to atorvastatin) / Cmax (molar ratio of 2‐hydroxy‐atorvastatin to atorvastatin): mean (%CV).
For data set [2] the following is noted: clinical trials and postmarketing surveillance; cited from earlier work.
Data set [3] can be described thus: Safety assessment. Format: in vivo, human (healthy adult participants). Conditions: by treatment arm.
The conditions of data set [4]: no reference given, cited from earlier work.
The subject of data set [5] is cytochrome P450 enzymes or uridine 5’‐diphospho‐glucuronosyltransferases. The note with it: in vitro; cited from earlier work.
For data set [6] the following is noted: cited from earlier work.
Data set [7] relates to JAK1. The note with it: human whole blood assay; cited from earlier work.
[8] abbreviates: both, human, plasma, oral, 10 mg.
[9] abbreviates: rosuvastatin + filgotinib vs rosuvastatin alone.
Where [10] appears, read: 2-hydroxy-atorvastatin after atorvastatin 40 mg alone, n = 25, median (Q1-Q3).
Where [11] appears, read: 2-hydroxy-atorvastatin, atorvastatin + filgotinib vs atorvastatin alone.
[12] abbreviates: atorvastatin 40 mg + filgotinib 200 mg once daily, n = 26.
Where [13] appears, read: atorvastatin 40 mg alone, n = 25.
Where [14] appears, read: atorvastatin + filgotinib vs atorvastatin alone.
[15] abbreviates: both, human, plasma, oral, 40 mg.

For `CC(C)c1nc(N(C)S(C)(=O)=O)nc(-c2ccc(F)cc2)c1/C=C/[C@@H](O)C[C@@H](O)CC(=O)O` [Rosuvastatin], in data set [1] (setting [8]), the total exposure AUC(0-inf) stood at 66 ng·h/mL and the Cmax amounted to 7.5 ng/mL. Besides, in data set [1] (both, human, plasma, oral, t1/2, rosuvastatin 10 mg (cocktail) + filgotinib 200 mg once daily, n = 26, median (Q1-Q3)), the half-life was 15.4 h. For the same compound, the “increase in Cmax with filgotinib coadministration relative to statin alone” value in data set [1] worked out at 68%. Further, the tmax in data set [1] (rosuvastatin 10 mg alone (cocktail), n = 25, median (Q1-Q3)) is given as 3.0 (2.0‐4.0) h. Further, in data set [1] (setting [9]), the “AUCinf GLSM Ratio (90% CI)” value is 1.42 (1.30‐1.57), the “AUClast GLSM Ratio (90% CI)” value is recorded as 1.46 (1.32‐1.62) and the “Cmax GLSM Ratio (90% CI)” value is listed as 1.68 (1.43‐1.97). Moreover, the “myopathy related to rosuvastatin, patients” value in data set [2] is recorded as ≤ 0.03%.
Consider `CC(C)c1c(C(=O)Nc2ccccc2O)c(-c2ccccc2)c(-c2ccc(F)cc2)n1CCC(O)CC(O)CC(=O)O` (stereo not shown) [2‐Hydroxy‐Atorvastatin, 2‐hydroxy‐atorvastatin], for which, in data set [1] (setting [10]), the t1/2 is reported as 9.1 (7.1‐10.9) h and the tmax is 2.0 (1.5‐4.1) h. Also, in data set [1] (setting [11]), the “AUCinf GLSM Ratio (90% CI)” value was 1.11 (1.02‐1.22), the “AUClast GLSM Ratio (90% CI)” value is 1.12 (1.02‐1.23) and the “Cmax GLSM Ratio (90% CI)” value is 0.98 (0.81‐1.19). For the same compound, in data set [1] (setting [12]), the “AUCinf (molar ratio of 2‐hydroxy‐atorvastatin to atorvastatin)” value is 1.6 (26.3) and the “Cmax (molar ratio of 2‐hydroxy‐atorvastatin to atorvastatin)” value is given as 0.8 (29.3). Moreover, in data set [1] (setting [13]), the “AUCinf (molar ratio of 2‐hydroxy‐atorvastatin to atorvastatin)” value is given as 1.3 (35.1) and the “Cmax (molar ratio of 2‐hydroxy‐atorvastatin to atorvastatin)” value is given as 0.7 (43.9). Moreover, in data set [1] (setting [14]), the “AUCinf (molar ratio of 2‐hydroxy‐atorvastatin to atorvastatin) GLSM Ratio (90% CI)” value is reported as 1.22 (1.15‐1.29) and the “Cmax (molar ratio of 2‐hydroxy‐atorvastatin to atorvastatin) GLSM Ratio (90% CI)” value is listed as 1.19 (1.06‐1.33).
In data set [1] (setting [15]), `CC[C@H](C)C(=O)O[C@H]1C[C@H](O)C=C2C=C[C@H](C)[C@H](CC[C@@H](O)C[C@@H](O)CC(=O)O)[C@H]21` [Pravastatin] gave a total exposure AUC(0-inf) of 201 ng·h/mL, an AUC(0-t) of 200 ng·h/mL and a tmax of 1 h. The half-life in data set [1] (both, human, plasma, oral, t1/2, pravastatin 40 mg (cocktail) + filgotinib 200 mg once daily, n = 26, mean (standard deviation)) was 6.57 h. For the same compound, the half-life in data set [1] (both, human, plasma, oral, t1/2, pravastatin 40 mg (cocktail) + filgotinib 200 mg once daily, n = 26, median (Q1-Q3)) is 5.6 h. Besides, the “increase in Cmax with filgotinib coadministration relative to statin alone” value in data set [1] is recorded as 25%. Moreover, in data set [1] (pravastatin + filgotinib vs pravastatin alone), the “AUClast GLSM Ratio (90% CI)” value is recorded as 1.22 (1.05‐1.41).
For `O=C(Nc1nc2cccc(-c3ccc(CN4CCS(=O)(=O)CC4)cc3)n2n1)C1CC1` [Filgotinib], in data set [3], the “participants with treatment‐emergent AE related to study drug, n (%)” value was 8 (30.8%). In addition, in data set [3] (all mild or moderate), the “headache, n [%]” value is 5 [19.2%] and the “nausea, n [%]” value was 3 [11.5%]. In data set [4], the “accumulation in plasma following multiple once-daily dosing of filgotinib” value is “does not accumulate”. Also, in data set [5], the “interaction with cytochrome P450 enzymes or UGTs” value is given as “do not interact”. The “effect on QT interval” value in data set [6] is recorded as “not affect QT interval”.
Consider `CC(C)c1c(C(=O)Nc2ccccc2)c(-c2ccccc2)c(-c2ccc(F)cc2)n1CC[C@@H](O)C[C@@H](O)CC(=O)O` [Atorvastatin], for which the “participants with treatment‐emergent AE related to study drug, n (%)” value in data set [3] was 3 (11.5%). In addition, the “headache, n [%]” value in data set [3] (all mild or moderate) is 2 [7.7%].
Turning to `Nc1nc2cccc(-c3ccc(CN4CCS(=O)(=O)CC4)cc3)n2n1` [GS‐829845], the “time to achieve steady-state plasma concentrations” value in data set [4] (multiple once-daily dosing of filgotinib) is given as “≈ 4 days”. Also, the “accumulation in plasma following multiple once-daily dosing of filgotinib” value in data set [4] is listed as “approximately 2 fold”. Also, in data set [7], the “reduced potency relative to filgotinib” value was “≈ 10 fold”. Moreover, the “interaction with cytochrome P450 enzymes or UGTs” value in data set [5] is reported as “do not interact”. For the same compound, in data set [6], the “effect on QT interval” value was “not affect QT interval”.
